Laboratory results: ChEMBL document CHEMBL1201862, “PubChem BioAssay data set” (2004)
Active and inactive are the calls of the source.

Tests used:
[1] = Luminescence Cell-Based Dose Confirmation HTS to Identify Activators of 5'UTR Stem-Loop Driven Alpha-Synuclein mRNA Translation in H4 Neuroglioblastoma Cells. [Related pubchem assays: 1829 (Project Summary), 1814 (Primary HTS)]; format: functional
[2] = Luminescence Cell-Based Dose Response HTS to Identify Activators of Luciferase Translation or Activity in H4 […] Cells. [Related pubchem assays: 1829 (Project Summary), 1814 (Primary HTS)]; format: functional
H4 = experiment: Luminescence Cell-Based Dose Response HTS to Identify Activators of 5'UTR Stem-Loop Driven Prion Protein mRNA Translation in H4 Neuroglioblastoma Cells. [Related pubchem assays: 1829 (Project Summary), 1814 (Primary HTS)]; format: functional; conditions: Homo sapiens
[3] = microbe, parasite or virus in culture; format: functional; conditions: Mycobacterium tuberculosis
[4] = Luminescence Cell-Based Dose Retest to Confirm Inhibitors of Cancer Stem Cells. [Related pubchem assays (depositor defined):AID2717, AID2721]; format: functional; conditions: Homo sapiens
[5] = cytotoxicity in HEK-293T cells, dose response, cytotoxicity control for TCR NF-kB inhibitor project, luminescence, T-cell screen hits (AID 489026); format: functional, cell-based;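 further: cells exposed to compound about 14 hours before the viability readout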
Coagulation factor XII = target: T1, Coagulation factor XII (Homo sapiens, UniProt P00748); format: functional;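 further: activated factor XIIa alpha cleaving a fluorogenic AMC peptide substrate; inhibitor potency from loss of enzyme activity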
T1 sequence (P00748 whole entry): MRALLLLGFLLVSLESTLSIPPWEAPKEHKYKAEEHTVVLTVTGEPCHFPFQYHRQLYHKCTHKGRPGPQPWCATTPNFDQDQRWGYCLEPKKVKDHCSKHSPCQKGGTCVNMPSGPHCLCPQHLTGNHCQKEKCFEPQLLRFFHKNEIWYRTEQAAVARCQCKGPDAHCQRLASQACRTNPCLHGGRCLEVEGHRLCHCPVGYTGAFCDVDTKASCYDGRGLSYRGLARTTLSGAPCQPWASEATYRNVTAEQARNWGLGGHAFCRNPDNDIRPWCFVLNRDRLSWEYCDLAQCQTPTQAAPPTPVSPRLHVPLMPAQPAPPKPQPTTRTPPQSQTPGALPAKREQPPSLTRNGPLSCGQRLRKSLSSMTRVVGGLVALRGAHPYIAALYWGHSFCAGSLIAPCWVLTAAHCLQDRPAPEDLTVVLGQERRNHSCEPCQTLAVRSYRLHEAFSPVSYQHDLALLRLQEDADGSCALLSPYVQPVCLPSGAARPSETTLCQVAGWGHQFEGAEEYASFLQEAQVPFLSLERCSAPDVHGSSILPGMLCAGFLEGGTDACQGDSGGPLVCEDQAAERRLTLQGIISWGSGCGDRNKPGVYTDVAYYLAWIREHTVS

Estrogen receptor = target: T2, Estrogen receptor (Homo sapiens, UniProt P03372);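 further: potency for inhibiting coactivator peptide recruitment to the receptor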
T2 sequence (P03372 whole entry): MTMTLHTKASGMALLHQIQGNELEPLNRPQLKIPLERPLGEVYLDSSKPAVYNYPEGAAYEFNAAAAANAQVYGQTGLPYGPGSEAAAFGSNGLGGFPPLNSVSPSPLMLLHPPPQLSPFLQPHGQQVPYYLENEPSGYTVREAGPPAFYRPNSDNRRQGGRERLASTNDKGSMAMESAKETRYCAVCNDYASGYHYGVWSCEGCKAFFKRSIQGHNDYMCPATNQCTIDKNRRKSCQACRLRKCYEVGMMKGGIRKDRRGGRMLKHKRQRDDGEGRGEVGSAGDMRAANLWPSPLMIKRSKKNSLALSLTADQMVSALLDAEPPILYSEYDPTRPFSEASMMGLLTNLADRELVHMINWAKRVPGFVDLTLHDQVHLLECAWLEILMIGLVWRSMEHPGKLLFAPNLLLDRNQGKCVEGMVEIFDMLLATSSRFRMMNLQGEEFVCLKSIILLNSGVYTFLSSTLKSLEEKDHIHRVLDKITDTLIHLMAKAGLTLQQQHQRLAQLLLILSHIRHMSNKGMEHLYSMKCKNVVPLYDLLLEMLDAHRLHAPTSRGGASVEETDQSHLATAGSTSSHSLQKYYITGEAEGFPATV

[6] = target: T3, Short transient receptor potential channel 4 (Mus musculus, UniProt Q9QUQ5); experiment: mouse TRPC4 channel activators, dose response, cell-based, HEK293 TRPC4/mu-opioid, Fluo-4 calcium (AID 434937); format: functional
T3 sequence (Q9QUQ5 whole entry): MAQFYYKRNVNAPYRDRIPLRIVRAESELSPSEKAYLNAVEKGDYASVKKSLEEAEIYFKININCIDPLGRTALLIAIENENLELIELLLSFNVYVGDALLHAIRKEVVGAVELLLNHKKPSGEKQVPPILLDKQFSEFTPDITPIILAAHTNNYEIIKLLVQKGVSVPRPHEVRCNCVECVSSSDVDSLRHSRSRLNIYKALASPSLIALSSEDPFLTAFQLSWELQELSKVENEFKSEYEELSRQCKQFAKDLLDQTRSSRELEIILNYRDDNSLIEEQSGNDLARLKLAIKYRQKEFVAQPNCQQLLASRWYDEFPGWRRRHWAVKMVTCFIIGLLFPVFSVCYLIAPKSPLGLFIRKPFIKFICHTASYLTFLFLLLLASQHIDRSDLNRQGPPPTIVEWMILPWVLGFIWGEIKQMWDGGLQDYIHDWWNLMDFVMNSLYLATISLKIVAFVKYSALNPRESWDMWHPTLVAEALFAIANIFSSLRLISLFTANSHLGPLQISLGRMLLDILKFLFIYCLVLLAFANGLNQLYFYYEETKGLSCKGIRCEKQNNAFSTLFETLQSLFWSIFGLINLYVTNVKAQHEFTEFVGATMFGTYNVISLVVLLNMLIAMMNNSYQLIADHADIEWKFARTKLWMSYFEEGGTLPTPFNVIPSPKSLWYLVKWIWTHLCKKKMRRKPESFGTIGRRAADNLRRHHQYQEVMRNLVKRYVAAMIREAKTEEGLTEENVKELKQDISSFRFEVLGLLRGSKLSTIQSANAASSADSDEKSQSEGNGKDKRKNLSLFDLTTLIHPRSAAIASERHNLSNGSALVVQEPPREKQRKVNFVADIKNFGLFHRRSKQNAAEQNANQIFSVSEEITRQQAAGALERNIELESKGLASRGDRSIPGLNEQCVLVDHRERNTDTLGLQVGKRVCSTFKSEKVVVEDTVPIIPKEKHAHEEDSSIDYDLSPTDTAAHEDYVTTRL

[7] = A Cell Based Secondary Assay To Explore Cytotoxicity of Compounds that Sensitize Mycobacterium Tuberculosis to Beta-Lactam Antibiotics.; format: functional
[8] = target: T4, Ubiquitin-conjugating enzyme E2 N (Homo sapiens, UniProt P61088); format: functional;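 further: Dose-response confirmation in a TR-FRET assay detecting UBC13-driven polyubiquitin chain formation, inhibition measured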
T4 sequence (P61088 whole entry): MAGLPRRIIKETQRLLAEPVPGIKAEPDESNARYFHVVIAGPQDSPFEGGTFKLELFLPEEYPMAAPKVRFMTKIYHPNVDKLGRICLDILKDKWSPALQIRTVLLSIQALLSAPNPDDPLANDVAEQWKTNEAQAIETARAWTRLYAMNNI

INS1 = experiment: beta cell apoptosis inhibitors, cytokine rescue, dose response, luminescence, retest (AID 449756); format: functional, cell-based; conditions: Rattus norvegicus;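 further: cell death triggered by IL-1 beta plus TNF-alpha plus IFN-gamma mixture; protective hits raise ATP signal compared with cytokine alone wells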
Estrogen receptor beta = Estrogen receptor beta (Homo sapiens, UniProt Q92731);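 further: recombinant ER-beta bound to coactivator SRC1 peptide in presence of estradiol agonist; inhibitors block coactivator peptide binding and lower the FRET signal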
Sequence of Estrogen receptor beta (Q92731 whole entry): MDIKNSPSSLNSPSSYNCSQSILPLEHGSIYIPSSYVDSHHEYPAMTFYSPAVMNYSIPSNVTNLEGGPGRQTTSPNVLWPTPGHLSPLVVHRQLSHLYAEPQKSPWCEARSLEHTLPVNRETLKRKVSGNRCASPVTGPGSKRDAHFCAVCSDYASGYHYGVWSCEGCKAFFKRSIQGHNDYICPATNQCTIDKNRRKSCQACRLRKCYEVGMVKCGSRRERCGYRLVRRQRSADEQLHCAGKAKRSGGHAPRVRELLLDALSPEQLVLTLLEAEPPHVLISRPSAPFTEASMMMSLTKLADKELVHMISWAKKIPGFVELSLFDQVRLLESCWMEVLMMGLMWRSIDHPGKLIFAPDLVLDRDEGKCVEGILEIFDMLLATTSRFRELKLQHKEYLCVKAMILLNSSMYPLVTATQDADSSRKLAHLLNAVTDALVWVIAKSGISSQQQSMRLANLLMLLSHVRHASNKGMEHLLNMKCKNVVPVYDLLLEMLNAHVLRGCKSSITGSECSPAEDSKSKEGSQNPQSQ

For O=C(c1ccccc1)c1nn(-c2ccc(Cl)cc2)c(=O)cc1C(F)(F)F, the EC50 [1] was 0.222 µM (active), the EC50 [2] was > 120 µM (not active) and the EC50 (H4) was > 120 µM (not active). For the same molecule, the CC50 [3] was 15.7 µM (active), the AC50 [4] was 4.21 µM (active) and the IC50 [5] was > 80 µM (inactive).

In the case of COC(=O)C(C)NC(=O)C1CCCN1S(=O)(=O)c1cc(C)c(Cl)cc1C (stereo not given), the IC50 (Coagulation factor XII) is reported as > 50 µM (inactive).

With CN(C)CC(=O)N1c2ccccc2CCc2ccc(NC(=O)c3ccc(N)cc3)cc21 the IC50 (Estrogen receptor) was 15.6 µM (active).

With Fc1ccc(-n2cc(CNCCc3cccnc3)c(-c3ccccc3Cl)n2)cc1 the EC50 [6] was 5.96 µM (active).

For Cc1ccc(C)c(NC(=O)CN(C)C(=O)CCN2C(=O)c3ccccc3C2=O)c1, the IC50 (Coagulation factor XII) was > 50 µM (inactive).

With Cc1cc(C)cc(OCC(=O)NNC(=O)c2ccccn2)c1 the CC50 [7] was 11.4 µM (active) and the IC50 [8] was > 20 µM (inactive).

In the case of Brc1c(C[n+]2ccccc2)nc2ccccn12, the IC50 (Coagulation factor XII) is reported as > 50 µM (inactive).

With CCc1nnc(NC(=O)C2Cc3ccccc3CN2S(=O)(=O)c2cccs2)s1 (stereo not given) the IC50 (Estrogen receptor) was > 50 µM (not active).

In the case of CCOc1ccc(S(=O)(=O)N(C(=O)c2ccco2)c2cc3sc(=O)oc3c3ccccc23)cc1, the CC50 [7] is reported as 31.6 µM (active) and the AC50 (INS1) is reported as 4.42 µM (active).

In the case of N#CCCS(=O)(=O)c1nnnn1-c1ccccc1, the IC50 (Estrogen receptor) is reported as > 50 µM (not active) and the IC50 (Estrogen receptor beta) is reported as > 50 µM (not active).

In the case of Cc1cc(C)cc(OCc2nc3cc(Br)c[nH]c-3n2)c1, the IC50 (Estrogen receptor) is reported as > 50 µM (not active).

With O=C(C1=C[C@H](c2ccc(Br)cc2)C[C@H](OCc2ccc(CO)cc2)O1)N1CCN(Cc2ccc3c(c2)OCO3)CC1 the CC50 [7] was 32 µM (active).
